Measured values taken from patent US20090069320A1, “Substituted 4-Amino-Quinazoline Compounds with Metabotropic Glutamate Receptor Regulating Activity and Uses Thereof” (Gruenenthal GmbH, priority 2006, published 2009).
Structures can show the parent of a compound that is named as a salt.

Molecular target: T1, mGluR5 receptor (Sus scrofa, UniProt I3LUI7)
T1 construct: 450 μg of protein from brain homogenate with 5 nM ^3[H]-MPEP; from tissue; host or cells: pig brain halves without medulla, cerebellum and pons
Assay: [3H]-MPEP mGluR5 receptor binding assay (pig brain homogenate)
Details: 5 nM [3H]-MPEP; for inhibition at 10 µM: read-out: % Inhibition of mGluR5 Receptor (pig) [^3H]-MPEP Bond at 10 μM; for IC50: read-out: IC50 mGluR5 Receptor (pig) [^3H]-MPEP Bond
In short: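 Radioligand displacement of 5 nM [3H]-MPEP from pig brain homogenate (450 μg protein; medulla, cerebellum and pons removed) in 20 mM Hepes pH 8.0. Compounds were tested at 10 μM, incubated 60 min at room temperature, then filtered and counted by scintillation. Non-specific binding was defined with 10 μM MPEP.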

T1 sequence (I3LUI7 19-1212): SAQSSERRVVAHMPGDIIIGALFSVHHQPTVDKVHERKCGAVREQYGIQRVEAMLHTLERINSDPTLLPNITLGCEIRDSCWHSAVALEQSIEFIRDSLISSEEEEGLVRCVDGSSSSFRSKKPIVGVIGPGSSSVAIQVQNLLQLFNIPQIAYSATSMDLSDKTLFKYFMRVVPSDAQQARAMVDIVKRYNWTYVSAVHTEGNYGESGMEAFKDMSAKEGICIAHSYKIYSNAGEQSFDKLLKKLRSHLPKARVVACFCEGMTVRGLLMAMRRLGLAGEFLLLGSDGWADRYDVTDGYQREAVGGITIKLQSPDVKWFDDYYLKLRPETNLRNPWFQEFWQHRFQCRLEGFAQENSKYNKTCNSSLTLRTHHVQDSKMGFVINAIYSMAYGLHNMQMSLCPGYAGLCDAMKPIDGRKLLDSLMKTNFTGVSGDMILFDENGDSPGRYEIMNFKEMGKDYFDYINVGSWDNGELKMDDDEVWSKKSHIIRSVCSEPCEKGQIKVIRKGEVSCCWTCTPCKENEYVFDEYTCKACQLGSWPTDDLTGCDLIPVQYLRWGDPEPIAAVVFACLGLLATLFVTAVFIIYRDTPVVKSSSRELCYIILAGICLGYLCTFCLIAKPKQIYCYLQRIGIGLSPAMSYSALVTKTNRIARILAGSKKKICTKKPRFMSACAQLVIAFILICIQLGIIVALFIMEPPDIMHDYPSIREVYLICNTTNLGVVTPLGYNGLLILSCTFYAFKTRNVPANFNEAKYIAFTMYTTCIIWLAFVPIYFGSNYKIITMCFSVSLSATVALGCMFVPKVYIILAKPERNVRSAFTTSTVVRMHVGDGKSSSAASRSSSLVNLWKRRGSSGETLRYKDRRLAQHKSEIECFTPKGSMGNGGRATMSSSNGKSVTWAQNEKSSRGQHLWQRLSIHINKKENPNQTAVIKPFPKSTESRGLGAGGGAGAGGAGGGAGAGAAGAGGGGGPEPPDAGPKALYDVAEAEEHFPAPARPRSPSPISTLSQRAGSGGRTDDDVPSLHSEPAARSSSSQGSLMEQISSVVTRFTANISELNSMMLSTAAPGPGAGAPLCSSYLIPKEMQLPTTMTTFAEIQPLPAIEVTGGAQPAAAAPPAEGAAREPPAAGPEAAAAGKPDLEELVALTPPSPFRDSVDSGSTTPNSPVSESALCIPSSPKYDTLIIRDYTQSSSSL

Row | inhibition at 10 µM (10 μM compound) | IC50 | Structure (SMILES) | further results
1 | – | 5360 nM | CC(=O)N(C)Cc1cccc(-c2ccc3ncnc(NC4CC4)c3c2)c1 [Example 221, N-[3-(4-cyclopropylamino-quinazolin-6-yl)-benzyl]-N-methyl-acetamide] | –
2 | – | 6070 nM | CS(=O)(=O)N(Cc1cccc(-c2ccc3ncnc(NC4CC4)c3c2)c1)C1CCCC1 [Example 210, N-cyclopentyl-N-(3-(4-(cyclopropylamino)quinazolin-6-yl)benzyl)methane sulfonamide] | –
3 | 59% | – | Cc1nc(NC2CC2)c2cc(-c3cccc(CN(C(=O)c4ccc(F)cc4F)C4CC4)c3)ccc2n1 [Example 517, N-cyclopropyl-N-(3-(4-(cyclopropylamino)-2-methylquinazolin-6-yl)benzyl)-2,4-difluorobenzamide] | –
4 | – | 100 nM | O=C1COCC(=O)N1Cc1cccc(-c2ccc3ncnc(NC4CC4)c3c2)c1 [Example 212, 4-(3-(4-(cyclopropylamino)quinazolin-6-yl)benzyl)morpholine-3,5-dione] | –
5 | 93% | – | Cc1cc2ncnc(NC3CC3)c2cc1-c1cccc(CN(C(=O)c2cccc(F)c2)C2CC2)c1 [Example 652, N-cyclopropyl-N-(3-(4-(cyclopropylamino)-7-methylquinazolin-6-yl)benzyl)-3-fluorobenzamide] | –
6 | 32% | – | CC(C)CN(Cc1cccc(-c2ccc3ncnc(N4CCOCC4)c3c2)c1)C(=O)CN(C)C [Example 31, 2-dimethylamino-N-isobutyl-N-[3-(4-morpholin-4-yl-quinazolin-6-yl)-benzyl]-acetamide] | –
7 | – | 1520 nM | O=C(Cc1ccccc1)N(Cc1cccc(-c2ccc3ncnc(NC4CC4)c3c2)c1)C1CC1 [Example 264, N-cyclopropyl-N-[3-(4-cyclopropylamino-quinazolin-6-yl)-benzyl]-2-phenyl-acetamide] | –
8 | 94% | – | Cc1cc2ncnc(NC3CC3)c2cc1-c1cccc(CN(C(=O)c2ccc(F)cc2F)C2CC2)c1 [Example 660, N-cyclopropyl-N-(3-(4-(cyclopropylamino)-7-methylquinazolin-6-yl)benzyl)-2,4-difluorobenzamide] | –
9 | – | 90 nM | CC(C)(C)CNc1ncnc2ccc(-c3cccc(CN4C(=O)CCC4=O)c3)cc12 [Example 866, 1-(3-(4-(neopentylamino)quinazolin-6-yl)benzyl)pyrrolidine-2,5-dione] | –
10 | 74% | – | CC(=O)N(Cc1cc(-c2ccc3ncnc(NC4CC4)c3c2)ccn1)C1CC1 [Example 773, N-cyclopropyl-N-((4-(4-(cyclopropylamino)quinazolin-6-yl)pyridin-2-yl)methyl)acetamide] | –
11 | 83% | – | CC(C)S(=O)(=O)N(Cc1cc(-c2ccc3ncnc(NC4CC4)c3c2)ccn1)C1CC1 [Example 804, N-cyclopropyl-N-((4-(4-(cyclopropylamino)quinazolin-6-yl)pyridin-2-yl)methyl)propane-2-sulfonamide] | –

Further lines, the compound ahead of its results:

Row | Structure (SMILES) | inhibition at 10 µM (10 μM compound) | IC50 | further results
12 | CNc1ncnc2ccc(-c3cccc(CN(C(=O)c4ccno4)c4ccccc4F)c3)cc12 [Example 671, N-(2-fluorophenyl)-N-(3-(4-(methylamino)quinazolin-6-yl)benzyl)isoxazole-5-carboxamide] | 40% | – | –
13 | O=C(c1cccs1)N(Cc1cc(-c2ccc3ncnc(NC4CC4)c3c2)ccc1Cl)C1CC1 [Example 754, N-(2-chloro-5-(4-(cyclopropylamino)quinazolin-6-yl)benzyl)-N-cyclopropylthiophene-2-carboxamide] | 95% | – | –
14 | O=C1CCC(=O)N1Cc1ccc(F)c(-c2ccc3ncnc(NC4CC4)c3c2)c1 [Example 895, 1-(3-(4-(cyclopropylamino)quinazolin-6-yl)-4-fluorobenzyl)pyrrolidine-2,5-dione] | 72% | – | –
15 | COc1ccc(S(=O)(=O)N(Cc2cccc(-c3cc4c(NC5CC5)ncnc4cc3C)c2)C2CC2)cc1 [Example 659, N-cyclopropyl-N-(3-(4-(cyclopropylamino)-7-methylquinazolin-6-yl)benzyl)-4-methoxybenzole sulfonamide] | – | – | % Inhibition of mGluR5 Receptor (pig) [^3H]-MPEP Bond at 10 μM (10 μM compound): 86%
16 | CC(=O)N(Cc1cccc(-c2cc3c(NC4CC4)ncnc3cc2C)c1)C1CC1 [Example 710, N-cyclopropyl-N-(3-(4-(cyclopropylamino)-7-methylquinazolin-6-yl)benzyl)acetamide] | – | 110 nM | –
17 | O=C(c1ccccc1)N(Cc1cccc(-c2cc(F)c3ncnc(NC4CC4)c3c2)c1)C1CC1 [Example 693, N-cyclopropyl-N-(3-(4-(cyclopropylamino)-8-fluoroquinazolin-6-yl)benzyl)benzamide] | 102% | – | –
18 | N#CCC(=O)N(Cc1cccc(-c2ccc3ncnc(NC4CC4)c3c2)c1F)C1CC1 [Example 197, 2-cyano-N-cyclopropyl-N-[3-(4-cyclopropylamino-quinazolin-6-yl)-2-fluoro-benzyl]-acetamide] | – | 660 nM | –
19 | COCC(=O)N(Cc1cccc(-c2ccc3ncnc(NC4CC4)c3c2)c1)C1CC1 [Example 252, N-cyclopropyl-N-[3-(4-cyclopropylamino-quinazolin-6-yl)-benzyl]-2-methoxy-acetamide] | – | 920 nM | –
20 | O=C(Cc1ccccc1)N(Cc1cc(-c2ccc3ncnc(NC4CC4)c3c2)ccc1Cl)C1CC1 [Example 748, N-(2-chloro-5-(4-(cyclopropylamino)quinazolin-6-yl)benzyl)-N-cyclopropyl-2-phenylacetamide] | 66% | – | –
21 | O=C(C1CCCCC1)N(Cc1cccc(-c2cc(F)c3ncnc(NC4CC4)c3c2)c1)C1CC1 [Example 662, N-cyclopropyl-N-(3-(4-(cyclopropylamino)-8-fluoroquinazolin-6-yl)benzyl)cyclohexane carboxamide] | 54% | – | –
22 | CCN(CC)c1ncnc2ccc(-c3cccc(CN(C)C(=O)C=Cc4ccccc4)c3)cc12 [Example 62, N-[3-(4-diethylamino-quinazolin-6-yl)-benzyl]-N-methyl-3-phenyl-acrylamide] | 43% | – | –
23 | CS(=O)(=O)N(Cc1c(F)ccc(-c2ccc3ncnc(NC4CC4)c3c2)c1F)C1CC1 [Example 246, N-cyclopropyl-N-(3-(4-(cyclopropylamino)quinazolin-6-yl)-2,6-difluorobenzyl)methane sulfonamide] | – | 350 nM | –
24 | O=C(c1ccc(C(F)(F)F)cc1F)N(Cc1cc(-c2ccc3ncnc(NC4CC4)c3c2)ccc1Cl)C1CC1 [Example 800, N-(2-chloro-5-(4-(cyclopropylamino)quinazolin-6-yl)benzyl)-N-cyclopropyl-2-fluoro-4-(trifluoromethyl)benzamide] | 91% | – | –
25 | CNc1ncnc2ccc(-c3ccc(F)c(CN(C)C(=O)CN(C)C)c3)cc12 [Example 718, 2-(dimethylamino)-N-(2-fluoro-5-(4-(methylamino)quinazolin-6-yl)benzyl)-N-methylacetamide] | 40% | – | –
26 | CC(C)Nc1ncnc2ccc(-c3cccc(CN4C(=O)CCC4=O)c3)cc12 [Example 873, 1-(3-(4-(isopropylamino)quinazolin-6-yl)benzyl)pyrrolidine-2,5-dione hydrochloride] | – | 80 nM | –
27 | Cc1cc(C(=O)N(Cc2cc(-c3ccc4ncnc(NC(C)(C)C)c4c3)ccc2F)C2CC2)n(C)n1 [Example 831, N-(5-(4-(tert-butylamino)quinazolin-6-yl)-2-fluorobenzyl)-N-cyclopropyl-1,3-dimethyl-1H-pyrazole-5-carboxamide] | 84% | – | –
